Experimental data: ChEMBL document CHEMBL4417630, “Small-molecule inhibitors of Rac1 in metastatic breast cancer” (2014)
Active and inactive are the calls of the source. The rule behind the calls is not given here.

Tests used:
[1] = target: Ras-related C3 botulinum toxin substrate 1 (Homo sapiens) (UniProt P63000); test: Potency index, ratio of IC50 for NSC-23766 to IC50 for test compound for inhibition of Rac1 in human MDA-MB-435 cells incubated for 24 hrs by G-LISA Rac1 activation assay; type: cell-based
[2] = target: Ras-related C3 botulinum toxin substrate 1 (Homo sapiens) (UniProt P63000); test: Inhibition of Rac1 in human MDA-MB-435 cells assessed as remaining enzyme activity at 4 uM by Western blotting based pulldown assay (reference value: 100%); type: cell-based
[3] = tested on: Ras-related C3 botulinum toxin substrate 1 (Homo sapiens), P63000 [G15A]; test: Inhibition of glutathione agarose conjugated Rac1 G15A mutant (unknown origin) in assessed as reduction in purified Tiam-1 DH/PH domain association with Rac1 G15A mutant by measuring average Tiam-1 level in pulldown at 8 uM by Western blotting based pulldown assay (reference value: 100%); set-up: scale not given: the % may be the effect or the level left
[4] = target: Ras-related C3 botulinum toxin substrate 1 (Homo sapiens) (UniProt P63000); test: Inhibition of Rac1 in human MDA-MB-231 cells assessed as remaining enzyme activity at 4 uM by Western blotting based pulldown assay (reference value: 100%); type: cell-based
[5] = target: Cell division control protein 42 homolog (Homo sapiens) (UniProt P60953); test: Inhibition of Cdc42 in human MDA-MB-435 cells assessed as remaining enzyme activity at 10 uM by Western blotting based pulldown assay (reference value: 100%); type: cell-based
[6] = tested on: Ras-related C3 botulinum toxin substrate 1 (Homo sapiens), P63000 [G15A]; test: Inhibition of glutathione agarose conjugated Rac1 G15A mutant (unknown origin) in assessed as reduction in purified Tiam-1 DH/PH domain association with Rac1 G15A mutant at […] by Western blotting based pulldown assay relative to control
[7] = target: Ras-related C3 botulinum toxin substrate 1 (Homo sapiens) (UniProt P63000); test: Inhibition of Rac1 in human MDA-MB-435 cells assessed as remaining enzyme activity at 2 uM by Western blotting based pulldown assay (reference value: 100%); type: cell-based
[8] = target: Transforming protein RhoA (Homo sapiens) (UniProt P61586); test: Activation of RhoA in human MDA-MB-435 cells assessed as remaining enzyme activity at 4 uM by Western blotting based pulldown assay (reference value: 100%); type: cell-based
[9] = target: Cell division control protein 42 homolog (Homo sapiens) (UniProt P60953); test: Inhibition of Cdc42 in human MDA-MB-435 cells assessed as remaining enzyme activity at 5 uM by Western blotting based pulldown assay (reference value: 100%); type: cell-based
[10] = target: Cell division control protein 42 homolog (Homo sapiens) (UniProt P60953); test: Inhibition of Cdc42 in human MDA-MB-231 cells assessed as inhibition of lamellipodia formation at 2 to 4 uM incubated for 24 hrs rhodamine phalloidin staining based fluorescence microscopy; type: cell-based
[11] = Toxicity in athymic nude mouse assessed as effect on gross indications of toxicity at 1 mg/kg, ip dosed once week for 9 weeks; type: organism-based; conditions: in vivo, 1512 h
[12] = target: Ras-related C3 botulinum toxin substrate 1 (Homo sapiens) (UniProt P63000); test: Inhibition of Rac1 in human MDA-MB-435 cells assessed as reduction in PAK1 […] phosphorylation at 2 to 4 uM by Western blot analysis; type: cell-based
MCF-10A [13] = test: Cytotoxicity against human MCF10A cells assessed as reduction in cell viability at 1 to 2 uM incubated for 24 hrs by MTT assay; type: cell-based
[14] = target: Transforming protein RhoA (Homo sapiens) (UniProt P61586); test: Activation of RhoA in human MDA-MB-435 cells assessed as remaining enzyme activity at 10 uM by Western blotting based pulldown assay (reference value: 100%); type: cell-based
[15] = tested on: Ras-related C3 botulinum toxin substrate 1 (Homo sapiens), P63000 [G15A]; test: Inhibition of glutathione agarose conjugated Rac1 G15A mutant (unknown origin) in assessed as reduction in purified Tiam-1 DH/PH domain association with Rac1 G15A mutant by measuring average Tiam-1 level in pulldown at 25 uM by Western blotting based pulldown assay (reference value: 100%); set-up: scale not given: the % may be the effect or the level left
MCF-10A [16] = test: Cytotoxicity against human MCF10A cells assessed as reduction in cell viability at 25 uM incubated for 24 hrs by MTT assay; type: cell-based
[17] = target: Ras-related C3 botulinum toxin substrate 3 (Homo sapiens) (UniProt P60763); test: Inhibition of Rac3 in human MDA-MB-435 cells assessed as remaining enzyme activity at 1 uM by Western blotting based pulldown assay (reference value: 100%); type: cell-based
MDA-MB-435 [18] = test: Cytotoxicity against human MDA-MB-435 cells assessed as reduction in cell viability at 25 uM incubated for 24 hrs by MTT assay; type: functional, cell-based
MDA-MB-435 [19] = test: Cytotoxicity against human MDA-MB-435 cells assessed as reduction in cell viability at 1 to 2 uM incubated for 24 hrs by MTT assay; type: functional, cell-based
[20] = target: Transforming protein RhoA (Homo sapiens) (UniProt P61586); test: Activation of RhoA in human MDA-MB-435 cells assessed as remaining enzyme activity at 5 uM by Western blotting based pulldown assay (reference value: 100%); type: cell-based
[21] = tested on: Ras-related C3 botulinum toxin substrate 1 (Homo sapiens), P63000 [G15A]; test: Inhibition of glutathione agarose conjugated Rac1 G15A mutant (unknown origin) in assessed as reduction in purified Tiam-1 DH/PH domain association with Rac1 G15A mutant by measuring average Tiam-1 level in pulldown at 4 uM by Western blotting based pulldown assay (reference value: 100%); set-up: scale not given: the % may be the effect or the level left
[22] = target: Cell division control protein 42 homolog (Homo sapiens) (UniProt P60953); test: Inhibition of Cdc42 in human MDA-MB-435 cells assessed as inhibition of lamellipodia formation at 2 to 4 uM incubated for 24 hrs rhodamine phalloidin staining based fluorescence microscopy; type: cell-based
MDA-MB-231 [23] = test: Cytotoxicity against human MDA-MB-231 cells assessed as reduction in cell viability at 1 to 2 uM incubated for 24 hrs by MTT assay; type: functional, cell-based
[24] = target: Cell division control protein 42 homolog (Homo sapiens) (UniProt P60953); test: Inhibition of Cdc42 in human MDA-MB-435 cells assessed as remaining enzyme activity at 2 uM by Western blotting based pulldown assay (reference value: 100%); type: cell-based
[25] = tested on: Ras-related C3 botulinum toxin substrate 1 (Homo sapiens), P63000 [G15A]; test: Inhibition of glutathione agarose conjugated Rac1 G15A mutant (unknown origin) in assessed as reduction in purified Tiam-1 DH/PH domain association with Rac1 G15A mutant at 40 uM by Western blotting based pulldown assay relative to control
MDA-MB-231 [26] = test: Cytotoxicity against human MDA-MB-231 cells assessed as reduction in cell viability at 25 uM incubated for 24 hrs by MTT assay; type: functional, cell-based
[27] = target: Ras-related C3 botulinum toxin substrate 1 (Homo sapiens) (UniProt P63000); test: Inhibition of Rac1 in human MDA-MB-231 cells assessed as remaining enzyme activity at 2 uM by Western blotting based pulldown assay (reference value: 100%); type: cell-based
[28] = target: Cell division control protein 42 homolog (Homo sapiens) (UniProt P60953); test: Inhibition of Cdc42 in human MDA-MB-435 cells assessed as remaining enzyme activity at 4 uM by Western blotting based pulldown assay (reference value: 100%); type: cell-based
[29] = target: Transforming protein RhoA (Homo sapiens) (UniProt P61586); test: Activation of RhoA in human MDA-MB-435 cells assessed as remaining enzyme activity at 2 uM by Western blotting based pulldown assay (reference value: 100%); type: cell-based
[30] = Toxicity in athymic nude mouse assessed as effect on gross indications of toxicity at 1 mg/kg, po dosed once week for 9 weeks; type: organism-based; conditions: in vivo, 1512 h
[31] = Toxicity in athymic nude mouse assessed as effect on body weight at 1 mg/kg, ip dosed once week for 9 weeks; type: organism-based; conditions: in vivo, 1512 h
[32] = Toxicity in athymic nude mouse assessed as effect on body weight at 1 mg/kg, po dosed once week for 9 weeks; type: organism-based; conditions: in vivo, 1512 h

Cell division control protein 42 homolog (Homo sapiens), sequence (P60953 whole entry, looked up, the tested form may be a part): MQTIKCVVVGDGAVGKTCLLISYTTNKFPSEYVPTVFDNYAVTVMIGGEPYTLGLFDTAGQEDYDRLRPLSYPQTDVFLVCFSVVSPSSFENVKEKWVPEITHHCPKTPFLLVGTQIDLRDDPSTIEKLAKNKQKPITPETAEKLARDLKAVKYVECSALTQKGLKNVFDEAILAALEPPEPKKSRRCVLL
Transforming protein RhoA (Homo sapiens), sequence (P61586 whole entry, the tested form may be a part): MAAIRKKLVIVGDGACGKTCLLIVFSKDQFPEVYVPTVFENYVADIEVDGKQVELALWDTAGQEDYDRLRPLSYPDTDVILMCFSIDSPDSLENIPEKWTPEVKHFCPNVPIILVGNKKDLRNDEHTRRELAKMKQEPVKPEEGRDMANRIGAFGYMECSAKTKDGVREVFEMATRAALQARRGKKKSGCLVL

Compound: CCn1c2ccccc2c2cc(Nc3ccnc(NCCCN4CCOCC4)n3)ccc21
- Ratio IC50 [1]: 100
- Activity [2]: 7%
- Activity [3]: 96%
- Activity [4]: 35%
- Activity [5]: 25%
- inhibition [6]: Active
- Activity [7]: 19%
- Activity [8]: 128%
- Activity [9]: 72%
- inhibition [10]: inactive
- Activity [11]: Non-Toxic
- inhibition [12]: Active
- Activity (MCF-10A [13]): Non-Toxic
- Activity [14]: 123%
- Activity [15]: 112%
- Activity (MCF-10A [16]): Toxic
- Activity [17]: 42%
- Activity (MDA-MB-435 [18]): Active
- Activity (MDA-MB-435 [19]): inactive
- Activity [20]: 125%
- Activity [21]: 123%
- inhibition [22]: inactive
- Activity (MDA-MB-231 [23]): inactive
- Activity [24]: 104%
- inhibition [25]: Active
- Activity (MDA-MB-231 [26]): Active
- Activity [27]: 65%
- Activity [28]: 95%
- Activity [29]: 155%
- Activity [30]: Non-Toxic
- Activity [31]: Non-Toxic
- Activity [32]: Non-Toxic
